Measured values as given in patent publication US8916711B2, “Imidazothiazole-chalcone derivatives as potential anticancer agents and process for the preparation thereof” (Council of Scientific and Industrial Research, priority 2009, dated 2014).
Read-outs that look alike come from different tables or passages of the source.

Tests used:
Format in all cases: cell-based
SF-539 = assay: NCI in vitro cytotoxicity (SRB, 48 h), CNS panel; settings: Homo sapiens; SF-539, CNS; 48 h exposure
NCI-H23 = assay: NCI in vitro cytotoxicity (SRB, 48 h), Non-small cell lung panel; settings: Homo sapiens, 48 h exposure
NCI-H460 = assay: as above; settings: Homo sapiens, 48 h exposure
MOLT-4 = assay: NCI in vitro cytotoxicity (SRB, 48 h), Leukemia panel; settings: Homo sapiens; MOLT-4, Leukemia; 48 h exposure
U251 = assay: NCI in vitro cytotoxicity (SRB, 48 h), CNS panel; settings: Homo sapiens, U-251, 48 h exposure
TK-10 = assay: NCI in vitro cytotoxicity (SRB, 48 h), Renal panel; settings: Homo sapiens; TK-10, Renal; 48 h exposure
COLO 205 = assay: NCI in vitro cytotoxicity (SRB, 48 h), Colon panel; settings: Homo sapiens; COLO 205, Colon; 48 h exposure
NCI-H226 = assay: NCI in vitro cytotoxicity (SRB, 48 h), Non-small cell lung panel; settings: Homo sapiens, 48 h exposure
SK-MEL-28 = assay: NCI in vitro cytotoxicity (SRB, 48 h), Melanoma panel; settings: Homo sapiens; SK-MEL-28, Melanoma; 48 h exposure
SNB-75 = assay: NCI in vitro cytotoxicity (SRB, 48 h), CNS panel; settings: Homo sapiens; SNB-75, CNS; 48 h exposure
Renal cancer cell lines = assay: NCI in vitro cytotoxicity, whole panel; settings: Homo sapiens; for CC50: read-out: Log10 LC50 (converted)
OVCAR-8 = assay: NCI in vitro cytotoxicity (SRB, 48 h), Ovarian panel; settings: Homo sapiens; OVCAR-8, Ovarian; 48 h exposure
OVCAR-5 = assay: as above; settings: Homo sapiens; OVCAR-5, Ovarian; 48 h exposure
[1] = tested on: Prostate cancer cell lines; assay: NCI in vitro cytotoxicity, whole panel; settings: Homo sapiens; for LC50: read-out: Log10 LC50 (converted)
HS 578T = assay: NCI in vitro cytotoxicity (SRB, 48 h), Breast panel; settings: Homo sapiens, 48 h exposure
RPMI-8226 = assay: NCI in vitro cytotoxicity (SRB, 48 h), Leukemia panel; settings: Homo sapiens; RPMI-8226, Leukemia; 48 h exposure
HCT-116 = assay: NCI in vitro cytotoxicity (SRB, 48 h), Colon panel; settings: Homo sapiens; for GI50: HCT-116, Colon, 48 h exposure
CCRF-CEM = assay: NCI in vitro cytotoxicity (SRB, 48 h), Leukemia panel; settings: Homo sapiens, 48 h exposure
K-562 = assay: as above; settings: Homo sapiens, K562; K-562, Leukemia; 48 h exposure
HOP-62 = assay: NCI in vitro cytotoxicity (SRB, 48 h), Non-small cell lung panel; settings: Homo sapiens; HOP-62, Non-small cell lung; 48 h exposure
M14 = assay: NCI in vitro cytotoxicity (SRB, 48 h), Melanoma panel; settings: Homo sapiens, 48 h exposure
SF-268 = assay: NCI in vitro cytotoxicity (SRB, 48 h), CNS panel; settings: Homo sapiens; SF-268, CNS; 48 h exposure
IGROV1 = assay: NCI in vitro cytotoxicity (SRB, 48 h), Ovarian panel; settings: Homo sapiens, IGROV-1; IGROV1, Ovarian; 48 h exposure
786-0 = assay: NCI in vitro cytotoxicity (SRB, 48 h), Renal panel; settings: Homo sapiens; 786-0, Renal; 48 h exposure
HCT-15 = assay: NCI in vitro cytotoxicity (SRB, 48 h), Colon panel; settings: Homo sapiens; HCT-15, Colon; 48 h exposure
[2] = tested on: Non-small-cell lung cancer cell lines; assay: NCI in vitro cytotoxicity, whole panel; settings: Homo sapiens; for CC50: read-out: Log10 LC50 (converted)
Melanoma cell lines = assay: NCI in vitro cytotoxicity, whole panel; settings: Homo sapiens; for CC50: read-out: Log10 LC50 (converted)
SF-295 = assay: NCI in vitro cytotoxicity (SRB, 48 h), CNS panel; settings: Homo sapiens; SF-295, CNS; 48 h exposure
[3] = tested on: Ovarian cancer cell lines; assay: NCI in vitro cytotoxicity, whole panel; settings: Homo sapiens; for CC50: read-out: Log10 LC50 (converted)
A549/ATCC = assay: NCI in vitro cytotoxicity (SRB, 48 h), Non-small cell lung panel; settings: Homo sapiens, 48 h exposure
OVCAR-3 = assay: NCI in vitro cytotoxicity (SRB, 48 h), Ovarian panel; settings: Homo sapiens; OVCAR-3, Ovarian; 48 h exposure
CAKI-1 = assay: NCI in vitro cytotoxicity (SRB, 48 h), Renal panel; settings: Homo sapiens; CAKI-1, Renal; 48 h exposure
Breast cancer cell lines = assay: NCI in vitro cytotoxicity, whole panel; settings: Homo sapiens; for GI50 / CC50: Breast, average of six to eight cell lines; for GI50: read-out: Log10 GI50 (converted); for CC50: read-out: Log10 LC50 (converted); for IC50: exposure period of at least 48 hrs, read-out: IC50, range over breast cell lines
LOX IMVI = assay: NCI in vitro cytotoxicity (SRB, 48 h), Melanoma panel; settings: Homo sapiens, 48 h exposure
MDAMB-435 = assay: as above; settings: Homo sapiens, MDA-MB-435; MDAMB-435, Melanoma; 48 h exposure
ACHN = assay: NCI in vitro cytotoxicity (SRB, 48 h), Renal panel; settings: Homo sapiens, 48 h exposure
[4] = Renal, average of six to eight cell lines, read-out: Log10 GI50 (converted)
[5] = Renal, average of six to eight cell lines
[6] = exposure period of at least 48 hrs, read-out: GI50, range over renal cell lines
[7] = Prostate cell, exposure period of at least 48 hrs, read-out: GI50, range over prostate cell lines
[8] = Prostate, average of the panel's cell lines, read-out: Log10 GI50 (converted)
[9] = Prostate, average of the panel's cell lines
[10] = Non-small-cell lung, average of six to eight cell lines, read-out: Log10 GI50 (converted)
[11] = Non-small-cell lung, average of six to eight cell lines
[12] = exposure period of at least 48 hrs, read-out: GI50, range over lung cell lines
[13] = Melanoma, average of six to eight cell lines, read-out: Log10 GI50 (converted)
[14] = Melanoma, average of six to eight cell lines
[15] = exposure period of at least 48 hrs, read-out: GI50, range over melanoma cell lines
[16] = Ovarian, average of six to eight cell lines, read-out: Log10 GI50 (converted)
[17] = Ovarian, average of six to eight cell lines
[18] = exposure period of at least 48 hrs, read-out: GI50, range over ovarian cell lines

## COc1ccc(C(=O)/C=C/c2c(C(F)(F)F)nc3sccn23)cc1OC [Compound 8f, (E)-1-(3,4-dimethoxyphenyl)-3-(6-(trifluoromethyl)imidazo[2,1-b]thiazol-5-yl) prop-2-en-1-one]
SF-539
  GI50: 2.36 µM
NCI-H23
  GI50: 2780 nM
NCI-H460
  GI50: 1940 nM
MOLT-4
  GI50: 2220 nM
U251
  GI50: 1870 nM
TK-10
  GI50: 8.76 µM
COLO 205
  GI50: 4.56 µM
NCI-H226
  GI50: 6.95 µM
SK-MEL-28
  GI50: 8.48 µM
SNB-75
  GI50: 6.87 µM
Renal cancer cell lines; [4]
  GI50: 4.9 µM
Renal cancer cell lines; [5]
  CC50: ≥ 100 µM
Renal cancer cell lines; [6]
  GI50: 2.46 to 8.76 µM
OVCAR-8
  GI50: 2.4 µM
OVCAR-5
  GI50: 4.18 µM
[1]; [7]
  GI50: 1.64 to 5.39 µM
[1]; [8]
  GI50: 2.95 µM
[1]; [9]
  LC50: ≥ 100 µM
HS 578T
  GI50: 2.51 µM
RPMI-8226
  GI50: 1620 nM
HCT-116; HCT-116, HCT116, Table 4, read-out: Comparative efficacy
  IC50: 1400 nM
HCT-116
  GI50: 1400 nM
CCRF-CEM
  GI50: 2.33 µM
K-562
  GI50: 2.25 µM
HOP-62
  GI50: 6 µM
M14
  GI50: 2.67 µM
SF-268
  GI50: 3.44 µM
IGROV1
  GI50: 3.15 µM
786-0
  GI50: 5.67 µM
HCT-15
  GI50: 2.54 µM
[2]; [10]
  GI50: 3.98 µM
[2]; [11]
  CC50: ≥ 100 µM
[2]; [12]
  GI50: 1.94 to 6.95 µM
Melanoma cell lines; [13]
  GI50: 3.63 µM
Melanoma cell lines; [14]
  CC50: ≥ 100 µM
Melanoma cell lines; [15]
  GI50: 0.6 to 8.48 µM
SF-295
  GI50: 3140 nM
[3]; [16]
  GI50: 2950 nM
[3]; [17]
  CC50: 100 µM
[3]; [18]
  GI50: 1880 to 4180 nM
A549/ATCC
  GI50: 4.65 µM
OVCAR-3
  GI50: 2120 nM
CAKI-1
  GI50: 2460 nM
Breast cancer cell lines
  GI50: 2.95 µM
  CC50: ≥ 100 µM
  IC50: 0.76 to 6.18 µM
LOX IMVI
  GI50: 600 nM
MDAMB-435
  GI50: 1850 nM
ACHN
  GI50: 5.1 µM

## COc1cc(C(=O)/C=C/c2c(-c3ccc(F)cc3)nc3sc(C)cn23)cc(OC)c1OC [Compound 19e, (E)-3-(6-(4-fluorophenyl)-2-methylimidazo[2,1-b]thiazol-5-yl)-1-(3,4,5-trimethoxyphenyl)prop-2-en-1-one]
SF-539
  GI50: 6.23 µM
NCI-H23
  GI50: 2240 nM
NCI-H460
  GI50: 3870 nM
MOLT-4
  GI50: 1620 nM
U251
  GI50: 4070 nM
TK-10
  GI50: 28 µM
COLO 205
  GI50: 4.94 µM
NCI-H226
  GI50: 9.58 µM
SK-MEL-28
  GI50: 7.07 µM
SNB-75
  GI50: 50.1 µM
Renal cancer cell lines; [4]
  GI50: 6.31 µM
Renal cancer cell lines; [5]
  CC50: ≥ 100 µM
Renal cancer cell lines; [6]
  GI50: 1.78 to 28 µM
OVCAR-8
  GI50: 4.94 µM
OVCAR-5
  GI50: > 100 µM
[1]; [7]
  GI50: 2.41 to 7.52 µM
[1]; [8]
  GI50: 4.27 µM
[1]; [9]
  LC50: ≥ 100 µM
HS 578T
  GI50: 8.29 µM
RPMI-8226
  GI50: 2320 nM
HCT-116
  GI50: 2920 nM
CCRF-CEM
  GI50: 7.19 µM
K-562
  GI50: 5.46 µM
HOP-62
  GI50: 85.1 µM
M14
  GI50: 5.12 µM
SF-268
  GI50: 15.2 µM
IGROV1
  GI50: 8.71 µM
786-0
  GI50: 8.88 µM
HCT-15
  GI50: 3.76 µM
[2]; [10]
  GI50: 4.47 µM
[2]; [11]
  CC50: ≥ 100 µM
[2]; [12]
  GI50: 0.15 to 85.1 µM
Melanoma cell lines; [13]
  GI50: 3.02 µM
Melanoma cell lines; [14]
  CC50: ≥ 100 µM
Melanoma cell lines; [15]
  GI50: 0.51 to 7.07 µM
SF-295
  GI50: 2330 nM
[3]; [16]
  GI50: 6760 nM
[3]; [17]
  CC50: 100 µM
[3]; [18]
  GI50: ≥ 2280 nM
A549/ATCC
  GI50: 9.34 µM
OVCAR-3
  GI50: 3660 nM
CAKI-1
  GI50: 1780 nM
Breast cancer cell lines
  GI50: 3.63 µM
  CC50: ≥ 100 µM
  IC50: 1.81 to 8.29 µM
LOX IMVI
  GI50: 2500 nM
MDAMB-435
  GI50: 1750 nM
ACHN
  GI50: 5.83 µM
